Data: patent US20230338564A1, “NEODEGRADER CONJUGATES” (Orum Therapeutics, Inc., priority 2020, published 2023)

Legend:
[1] = system: EOL-1 cell line; test: In vitro antiproliferation assay, General Procedure 2 (CCK-8); format: cell-based, human; conditions: Homo sapiens, EOL1; Acute myeloid leukemia; read-out: IC50, EOL-1
Description: (§1) Cell Culture: Cell lines were obtained from the American Type Culture Collection (ATCC, Manassas, VA, USA) or Deutsche Sammlung von Mikroorganismen und Zellkulturen (DSMZ, Braunschweig, Germany) and maintained according to the culturing conditions specified by ATCC or DSMZ. Cells were thawed out and maintained in culture for at least two passages before proceeding with experimental conditions.
(§2) Cytotoxicity assays: For adherent cell lines, the cells were dissociated with enzyme-free PBS-based cell dissociation buffer (Gibco, USA) and plated on tissue culture treated 96-well flat bottom polystyrene plates (Costar, Corning, USA) at appropriate cell densities depending on doubling time of the cells. 18 hours after plating, cells were treated with test articles at appropriate concentrations starting at 100 nM and diluted in 4-fold serial dilutions. For suspension cell lines, the cells were seeded on the same day of treatment and cells were treated as described above. Adherent cells were treated for 5 days and suspension cells were treated for 3 days. Cell proliferation was assessed using the Cell Counting Kit-8 (CCK-8, Dojindo Laboratories, Japan) and measurements were obtained using the Promega GloMax Discover plate reader (Promega, USA). Data were analyzed using GraphPad Prism software (GraphPad Software, San Diego, CA). All data points were obtained from technical triplicates and the experiments were validated using three biological replicates.

[2] = system: NCI-N87 gastric cancer cell line; test: In vitro antiproliferation assay, General Procedure 1 (WST-8); format: cell-based
Description: (§3) The ability of neoDegrader conjugates to inhibit cell growth was measured using in vitro anti-proliferation assay. […] Conjugates were diluted in complete cell growth medium using 4-fold serial dilutions and 100 µL was added per well. […] Viability of remaining cells was determined by colorimetric WST-8 assay (Dojindo Molecular Technologies, Inc., Rockville, MD, US). WST-8 was added to 10% of the final volume and plates were incubated at 37° C. in a humidified 5% CO2 incubator for 2-4 hours. Plates were analyzed by measuring the absorbance at 450 nm (A450) in a multi-well plate reader. Background A450 absorbance of wells with media and WST-8 only was subtracted from all values. The percent viability was calculated by dividing each treated sample value by the average value of wells with untreated cells. The percent viability value was plotted against the test sample concentration in a semi-log plot for each treatment. IC50 values were calculated automatically.

[3] = system: Daudi lymphoma cell line; test: as above; format: cell-based
Description: as §3

[4] = system: CFPAC-1 cell line (Pancreatic); test: as above; format: cell-based; conditions: Homo sapiens
Description: as §3

[5] = system: NCI-H2030 cell line (Lung); test: as above; format: cell-based; conditions: Homo sapiens
Description: as §3

[6] = system: Ramos (non-Hodgkins lymphoma) cell line; test: as above; format: cell-based
Description: as §3

[7] = system: SK-BR-3 breast cancer cell line; test: as above; format: cell-based
Description: as §3

[8] = system: JHUEM-3 cell line (Uterus); test: as above; format: cell-based
Description: as §3

[9] = system: HCC1954 cell line (Breast); test: as above; format: cell-based; conditions: Homo sapiens, conjugates DAR 8
Description: as §3

[10] = system: BT-474 breast cancer cell line; test: as above; format: cell-based; conditions: Homo sapiens, BT-474, read-out: IC50, BT-474, conjugates DAR 8, comparators DAR not given
Description: as §3

[11] = system: AGS cell line; test: In vitro antiproliferation assay, General Procedure 2 (CCK-8); format: cell-based; conditions: Homo sapiens, Gastric
Description: as §1, §2

[12] = system: HS-SY-II synovial sarcoma cell line; test: as above; format: cell-based
Description: as §1, §2

[13] = system: THP-1 cell line; test: as above; format: cell-based; conditions: Homo sapiens, AML
Description: as §1, §2

[14] = system: NB-4 cell line; test: as above; format: cell-based; conditions: Homo sapiens, Acute promyelocytic leukemia
Description: as §1, §2

[15] = system: SKM-1 cell line; test: as above; format: cell-based; conditions: Homo sapiens, SKM-1; Acute myeloid leukemia; read-out: IC50, SKM-1
Description: as §1, §2

[16] = system: OCI-M2 cell line; test: as above; format: cell-based; conditions: Acute myelocytic leukemia
Description: as §1, §2

[17] = system: U251MG cell line; test: as above; format: cell-based; conditions: Homo sapiens, U-251; Brain
Description: as §1, §2

[18] = system: RH41 cell line; test: as above; format: cell-based; conditions: Homo sapiens, Rhabdomyosarcoma
Description: as §1, §2

[19] = system: CMK cell line; test: as above; format: cell-based; conditions: Homo sapiens, Acute megakaryocytic leukemia
Description: as §1, §2

[20] = system: SNU182 cell line; test: as above; format: cell-based; conditions: Homo sapiens, SNU-182; Liver
Description: as §1, §2

[21] = system: OCI-AML2 cell line; test: as above; format: cell-based; conditions: Homo sapiens, OCI-AML2; Acute myeloid leukemia; read-out: IC50, OCI-AML2
Description: as §1, §2

[22] = system: LOVO cell line; test: as above; format: cell-based; conditions: Homo sapiens, Colon
Description: as §1, §2

[23] = system: PL-21 cell line; test: as above; format: cell-based; conditions: Acute myeloid leukemia
Description: as §1, §2

[24] = system: RH30 cell line; test: as above; format: cell-based; conditions: Rhabdomyosarcoma
Description: as §1, §2

[25] = system: OCI-AML4 cell line; test: as above; format: cell-based; conditions: Acute myeloid leukemia; read-out: IC50, OCI-AML4
Description: as §1, §2

[26] = system: SU-DHL-8 cell line; test: as above; format: cell-based; conditions: Homo sapiens, NHL
Description: as §1, §2

[27] = system: SKOV3 cell line; test: as above; format: cell-based; conditions: Homo sapiens, SK-OV-3; Ovarian
Description: as §1, §2

[28] = system: THLE2 cell line; test: as above; format: cell-based; conditions: THLE-2; Human liver normal
Description: as §1, §2

[29] = system: JHUEM3 cell line; test: as above; format: cell-based; conditions: Endometrial
Description: as §1, §2

## CNCCOCCc1ccc(NC(=O)NCc2ccc3c(c2)CN(C2CCC(=O)NC2=O)C3=O)cc1Cl (stereo not drawn) [Compound P1, 1-(3-chloro-4-[2-[2-(methylamino)ethoxy]ethyl]phenyl)-3-[[2-(2,6-dioxopiperidin-3-yl)-1-oxo-3H-isoindol-5-yl]methyl]urea]
[1]
  IC50: 0.0031 µM
[2]; Homo sapiens, NCI-N87, Gastric, conjugates DAR 8
  IC50: > 0.1 µM
[2]; NCI-N87 cells, neoDegrader conjugates (DAR 8) versus comparators, FIGS. 16 and 17
  anti-proliferative activity compared, in words: significantly less active
[3]; Daudi cells, rituximab neoDegrader conjugates versus comparators, FIGS. 14 and 15
  antiproliferative activity compared, in words: less active
[3]; Homo sapiens, Daudi
  IC50: > 0.1 µM
[4]
  IC50: > 0.1 µM
[5]
  IC50: > 0.1 µM
[6]; Homo sapiens, Ramos
  IC50: > 0.1 µM
[6]; Ramos cells, rituximab neoDegrader conjugates versus comparators, FIG. 13
  antiproliferative activity compared, in words: less active
[7]; Homo sapiens, SK-BR-3, Breast, conjugates DAR 8
  IC50: 0.1 µM
[7]; SK-BR-3 cells, neoDegrader conjugates (DAR 8) versus comparators, FIGS. 7 and 8
  anti-proliferative activity compared, in words: significantly less active
[8]
  IC50: > 0.1 µM
[9]
  IC50: > 0.1 µM
[10]
  IC50: 0.013 µM
[11]
  IC50: > 1 µM
[12]
  IC50: 0.0117 µM
[13]
  IC50: 0.35 µM
[14]
  IC50: 0.00863 µM
[15]
  IC50: 0.00321 µM
[16]
  IC50: 0.65 µM
[17]
  IC50: > 1 µM
[18]
  IC50: 1.21 µM
[19]
  IC50: 0.408 µM
[20]
  IC50: 0.0127 µM
[21]
  IC50: 0.0959 µM
[22]
  IC50: > 1 µM
[23]
  IC50: 0.00755 µM
[24]
  IC50: 0.174 µM
[25]
  IC50: 0.0224 µM
[26]
  IC50: 0.102 µM
[27]
  IC50: 0.114 µM
[28]
  IC50: > 1 µM
[29]
  IC50: > 1 µM
